Results on 27 molecules are retold here after patent publication US20240150368A1, “ULK INHIBITORS AND METHODS OF USE THEREOF” (Deciphera Pharmaceuticals, LLC, priority 2022, published 2024).

The test system of assay [1] is ULK kinase substrate ATG13 (pS318-ATG13) in MiaPaCa-2 cells. The assay is described as follows: pATG13 levels of mutant KRas MiaPaCa-2 cells after treatment with ULK inhibitors in combination with trametinib (ELISA). In kind it is cell-based, human. The procedure, abridged: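 MiaPaCa-2 cells grown overnight, then dosed with test compound titration plus trametinib (final 250 nM) or DMSO, overnight at 37° C. Lysate pS318-ATG13 measured by sandwich ELISA (total ATG13 capture, biotinylated pS318 detection, HRP/TMB, A450 minus A540); % phosphorylation vs control wells fitted to IC50.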

Assay [2] has as its target T1, ULK1 kinase (Homo sapiens, UniProt O75385, E37A/K38A).
T1 construct: (residues 1-283; ID NO: 1); purchased Beryllium
T1 sequence (O75385 1-283 E37A/K38A): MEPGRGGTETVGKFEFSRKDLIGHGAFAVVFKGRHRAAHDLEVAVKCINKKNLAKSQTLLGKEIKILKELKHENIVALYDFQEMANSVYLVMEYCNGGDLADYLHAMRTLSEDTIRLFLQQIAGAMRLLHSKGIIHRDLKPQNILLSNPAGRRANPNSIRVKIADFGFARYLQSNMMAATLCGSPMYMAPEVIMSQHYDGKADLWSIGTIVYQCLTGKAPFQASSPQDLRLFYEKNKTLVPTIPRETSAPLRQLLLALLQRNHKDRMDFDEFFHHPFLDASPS
As to the kind of experiment: Biochemical assay for ULK1 (coupled pyruvate kinase/lactate dehydrogenase assay). The following applies: 1 mM ATP, 0.1 nM ULK1; read-out: ULK1 (inhibition of biochemical activity), IC50. The procedure, abridged:
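IC50 values were fitted to percent inhibition, normalised with no-compound and known-inhibitor controls, using rates from 2–3 h of a 6 h read at 30 °C. ADP was coupled through pyruvate kinase/lactate dehydrogenase to NADH loss at 340 nm.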

For `CC/C(Nc1cnn(C2CN(C3CCC3)C2)c1)=C1/C(=O)Nc2ccc(C(=O)NC[C@H]3CCCO3)cc21` [Example 88], the IC50 (in general, the concentration that inhibits the measured activity by half) was at most 100 nM in assay [1] and at most 10 nM in assay [2].

As for `CC/C(Nc1ccc(N2CC3CC2CN3C)cc1)=C1/C(=O)Nc2ccc(C(=O)NCC(F)(F)F)cc21` (stereo not drawn) [Example 71], the IC50 in assay [1] was at most 100 nM; in assay [2], at most 10 nM.

On to `CC/C(Nc1cnn(C2CCN(C(C)C)CC2)c1)=C1/C(=O)Nc2ccc(C(=O)NCCOC(F)(F)F)cc21` [Example 82], for which the values for the concentration for half-maximal inhibition (IC50) in assay [1] and in assay [2] were at most 100 nM and at most 10 nM, respectively.

As for `CC/C(Nc1cnn(C2CN(C)C2)c1)=C1/C(=O)Nc2ccc(C(=O)NCCOC)cc21` [Example 89], the results for the half-maximal inhibitory concentration (IC50) in assay [1] and in assay [2] were 100 to 300 nM and 10 to 100 nM, respectively.

As for `CC/C(Nc1ccc(N2CC3(CN(C)C3)C2)cc1)=C1/C(=O)Nc2ccc(C(=O)NC[C@H]3CCCO3)cc21` [Example 66], the IC50 was at most 100 nM in assay [1] and at most 10 nM in assay [2].

With `CC/C(Nc1ccc(N2CC3(CN(C)C3)C2)cc1)=C1/C(=O)Nc2ccc(C(=O)NCC(C)C)cc21` [Example 65], the IC50 was at most 100 nM in assay [1] and at most 10 nM in assay [2].

Turning to `CC/C(Nc1cnn(C2CCN(C(C)C)CC2)c1)=C1/C(=O)Nc2ccc(C(=O)NC[C@H]3CCCO3)cc21` [Example 1, (R,Z)-3-(1-((1-(1-isopropylpiperidin-4-yl)-1H-pyrazol-4-yl)amino)propylidene)-2-oxo-N-((tetrahydrofuran-2-yl)methyl)indoline-5-carboxamide], the concentration for half-maximal inhibition (IC50) in assay [1] was at most 100 nM; in assay [2], at most 10 nM.

On to `CC/C(Nc1cnn(C)c1)=C1/C(=O)Nc2ccc(C(=O)NCC(F)(F)F)cc21` [Example 77], for which the values for the half-maximal inhibitory concentration (IC50) in assay [1] and in assay [2] were at most 100 nM and at most 10 nM, respectively.

As for `CC/C(Nc1ccc(N2CC3(COC3)C2)cc1)=C1/C(=O)Nc2ccc(C(=O)NCC(F)(F)F)cc21` [Example 85], the values for the half-inhibitory concentration (IC50) in assay [1] and in assay [2] were 100 to 300 nM and 10 to 100 nM, respectively.

Take `CC/C(Nc1ccc(N2CC3CC(C2)N3C)cc1)=C1/C(=O)Nc2ccc(C(=O)NCC(C)C)cc21` [Example 67]: the IC50 in assay [1] is at most 100 nM; in assay [2], at most 10 nM.

On to `CC/C(Nc1ccc(N2C[C@H]3CN(C)C[C@H]3C2)cc1)=C1/C(=O)Nc2ccc(C(=O)NCC(C)C)cc21` [Example 63], for which the figures for the half-inhibitory concentration (IC50) in assay [1] and in assay [2] were at most 100 nM and 10 to 100 nM, respectively.

As for `CC/C(Nc1cnn(C2CN(C)C2)c1)=C1/C(=O)Nc2ccc(C(=O)NCC(C)C)cc21` [Example 87], the IC50 in assay [1] was at most 100 nM; in assay [2], 10 to 100 nM.

For the molecule `CC/C(Nc1ccc(N2CC3CC2CN3C)cc1)=C1/C(=O)Nc2ccc(C(=O)NC[C@H]3CCCO3)cc21` (stereo partly drawn) [Example 70], the values for the IC50 in assay [1] and in assay [2] were at most 100 nM and at most 10 nM, respectively.

With `CC/C(Nc1ccc(N2CCN(C(C)C)CC2)cn1)=C1/C(=O)Nc2cc(F)c(C(=O)NCC(F)(F)F)cc21` [Example 92], the concentration for half-maximal inhibition (IC50) in assay [1] is at most 100 nM; in assay [2], 100 to 500 nM.

On to `CC/C(Nc1cnn(C2CN(C(C)C)C2)c1)=C1/C(=O)Nc2ccc(C(=O)NC[C@H]3CCCO3)cc21` [Example 91], for which the concentration for half-maximal inhibition (IC50) in assay [1] is at most 100 nM; in assay [2], at most 10 nM.

Regarding `CC/C(Nc1ccc(-c2cn(C)nn2)cc1)=C1/C(=O)Nc2ccc(C(=O)NCC(F)(F)F)cc21` [Example 79], the IC50 was at most 100 nM in assay [1] and 10 to 100 nM in assay [2].

In the case of `CC/C(Nc1ccc(N2CCN(C)CC2)cn1)=C1/C(=O)Nc2ccc(C(=O)NCC(F)(F)F)cc21` [Example 75], the figures for the IC50 in assay [1] and in assay [2] were at most 100 nM and at most 10 nM, respectively.

On to `CC/C(Nc1ccc(N2CC3CC2CN3C)cc1)=C1/C(=O)Nc2ccc(C(=O)NCC(C)C)cc21` (stereo not drawn) [Example 69], for which the figures for the IC50 in assay [1] and in assay [2] were at most 100 nM and at most 10 nM, respectively.

Consider `CC/C(Nc1ccc(N2CCN(C)CC2)nc1)=C1/C(=O)Nc2ccc(C(=O)NCC(F)(F)F)cc21` [Example 74], for which the 50% inhibitory concentration (IC50) in assay [1] was at most 100 nM; in assay [2] it was 10 to 100 nM.

For the molecule `CC/C(Nc1ccc(N2CC3CC(C2)N3C)cc1)=C1/C(=O)Nc2ccc(C(=O)NC[C@H]3CCCO3)cc21` [Example 68], the concentration for half-maximal inhibition (IC50) in assay [1] is at most 100 nM; in assay [2] it was at most 10 nM.

Turning to `CC/C(Nc1cnn(C2CN(CC)C2)c1)=C1/C(=O)Nc2ccc(C(=O)NC[C@H]3CCCO3)cc21` [Example 90], the figures for the IC50 in assay [1] and in assay [2] were at most 100 nM and at most 10 nM, respectively.

`CC/C(Nc1ccc(N2C[C@H]3CN(C)C[C@H]3C2)cc1)=C1/C(=O)Nc2ccc(C(=O)NC[C@H]3CCCO3)cc21` [Example 64]: the IC50 was at most 100 nM in assay [1] and 10 to 100 nM in assay [2].

With `CC/C(Nc1cnn(C2CCN(C(C)C)CC2)c1)=C1/C(=O)Nc2ccc(C(=O)NC[C@H]3CC(F)(F)CO3)cc21` [Example 80], the IC50 in assay [1] is at most 100 nM; in assay [2], at most 10 nM.

For the molecule `CC/C(Nc1ccc(-c2nc(C)no2)cc1)=C1/C(=O)Nc2ccc(C(=O)NCC(F)(F)F)cc21` [Example 78], the IC50 in assay [1] lay in the range of 100 to 300 nM; in assay [2], 10 to 100 nM.

On to `CC/C(Nc1cnn(C2CN(C)C2)c1)=C1/C(=O)Nc2ccc(C(=O)NCC(F)(F)F)cc21` [Example 86], for which the IC50 was at most 100 nM in assay [1] and at most 10 nM in assay [2].

In the case of `CC/C(Nc1cnn(C2CCN(C(C)C)CC2)c1)=C1/C(=O)Nc2ccc(C(=O)NC[C@H]3CCCCO3)cc21` [Example 83], the 50% inhibitory concentration (IC50) in assay [1] was at most 100 nM; in assay [2], at most 10 nM.

In the case of `CC/C(Nc1cnn(C2CC3(C2)CN(C)C3)c1)=C1/C(=O)Nc2ccc(C(=O)NCC(F)(F)F)cc21` [Example 84], the concentration for half-maximal inhibition (IC50) is at most 100 nM in assay [1] and at most 10 nM in assay [2].
